# Laboratory results from patent US20230276794A1, “MESH MATERIALS FOR CONTROLLED RELEASE OF ANTIVIRALS, METHOD AND USE” (priority 2020, published 2023).
# Test system: Coronavirus (MHV-3 Strain)
# Assay type: cell-based, Coronavirus MHV-3 Strain genus Betacoronavirus
# Settings: concentration of 5%
structure (smiles),measurement,value
"N=C(NCCCCCCNC(=N)NC(=N)Nc1ccc(Cl)cc1)NC(=N)Nc1ccc(Cl)cc1 [5% Chlorhexidine, 1,1′-hexamethylene-bis(5-(p-chlorophenyl)-biguanide)]",time after which activity was lost,10 min
